In ChEMBL document CHEMBL6134771, “Ligand-centred phenotype-driven development of potent kinase inhibitors against oesophageal cancer” (RSC Med Chem, 2025):
Active and inactive are the calls of the source. The rule behind the calls is not given here.

Legend:
[1] = tested on: OE33; experiment: Antiproliferative activity against human OE33 cells assessed as reduction in cell viability at 0.003 to 30 uM measured after 5 days by PrestoBlue reagent based fluorescence analysis; assay type: functional; conditions: dose 0.003-30 µM, time 5.0 day
[2] = tested on: FLO-1; experiment: Antiproliferative activity against human FLO-1 cells assessed as reduction in cell viability at 0.003 to 30 uM measured after 5 days by PrestoBlue reagent based fluorescence analysis; assay type: functional; conditions: dose 0.003-30 µM, time 5.0 day
[3] = tested on: OE33; experiment: cells; conditions: Homo sapiens, OE33, 120 h
Description: Antiproliferative activity against human OE33 cells assessed as reduction in cell viability measured after 5 days by PrestoBlue reagent based fluorescence analysis

[4] = cells; conditions: Homo sapiens, FLO-1, 120 h
Description: Antiproliferative activity against human FLO-1 cells assessed as reduction in cell viability measured after 5 days by PrestoBlue reagent based fluorescence analysis

[5] = biological target: T1, Aurora kinase A (Homo sapiens, UniProt O14965); experiment: Inhibition of recombinant AuroraA (unknown origin)
T1 sequence (O14965 whole entry): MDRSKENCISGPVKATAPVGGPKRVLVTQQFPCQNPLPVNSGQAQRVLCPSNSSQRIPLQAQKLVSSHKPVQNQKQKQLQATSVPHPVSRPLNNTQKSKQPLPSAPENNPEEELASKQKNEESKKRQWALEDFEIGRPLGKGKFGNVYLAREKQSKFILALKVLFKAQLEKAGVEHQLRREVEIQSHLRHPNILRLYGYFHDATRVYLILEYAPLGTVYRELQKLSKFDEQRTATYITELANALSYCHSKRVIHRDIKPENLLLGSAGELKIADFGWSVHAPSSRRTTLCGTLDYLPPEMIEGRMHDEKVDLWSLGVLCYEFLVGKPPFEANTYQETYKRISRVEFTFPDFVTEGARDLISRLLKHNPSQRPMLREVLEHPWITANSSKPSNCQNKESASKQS

[6] = tested on: EPC-2; experiment: Antiproliferative activity against human EPC-2 cells assessed as reduction in cell viability at 0.003 to 30 uM measured after 5 days by PrestoBlue reagent based fluorescence analysis; assay type: functional; conditions: dose 0.003-30 µM, time 5.0 day
[7] = cells; conditions: Homo sapiens, MFD-1, 120 h
Description: Antiproliferative activity against human MFD-1 cells assessed as reduction in cell viability measured after 5 days by PrestoBlue reagent based fluorescence analysis

[8] = tested on: JH-EsoAd1; experiment: Antiproliferative activity against human JH-EsoAd1 cells assessed as reduction in cell viability at 0.003 to 30 uM measured after 5 days by PrestoBlue reagent based fluorescence analysis; assay type: functional; conditions: dose 0.003-30 µM, time 5.0 day
[9] = tested on: MFD-1; experiment: Antiproliferative activity against human MFD-1 cells assessed as reduction in cell viability at 0.003 to 30 uM measured after 5 days by PrestoBlue reagent based fluorescence analysis; assay type: functional; conditions: dose 0.003-30 µM, time 5.0 day
[10] = tested on: OACp4C; experiment: Antiproliferative activity against human OACp4C cells assessed as reduction in cell viability at 0.003 to 30 uM measured after 5 days by PrestoBlue reagent based fluorescence analysis; assay type: functional; conditions: dose 0.003-30 µM, time 5.0 day
[11] = tested on: SKGT4; experiment: Antiproliferative activity against human SKGT4 cells assessed as reduction in cell viability at 0.003 to 30 uM measured after 5 days by PrestoBlue reagent based fluorescence analysis; assay type: functional; conditions: dose 0.003-30 µM, time 5.0 day
[12] = cells; conditions: Homo sapiens, SKGT4, 120 h
Description: Antiproliferative activity against human SKGT4 cells assessed as reduction in cell viability measured after 5 days by PrestoBlue reagent based fluorescence analysis

[13] = tested on: CP-A; experiment: Antiproliferative activity against human CP-A cells assessed as reduction in cell viability at 0.003 to 30 uM measured after 5 days by PrestoBlue reagent based fluorescence analysis; assay type: functional; conditions: dose 0.003-30 µM, time 5.0 day

SMILES | Activity [1] | Activity [2] | further results
CNc1ncc2c(/C=C/C(=O)N3CCCC(OC)C3)nn(Cc3cccc(C)c3)c2n1 (stereo not given) | inactive | inactive | 
Nc1ncnc2c1c(/C=C/C(=O)N1CCCC1)nn2CC1CCCC1 |  |  | EC50 [3]: ~30000 nM; EC50 [4]: ~30000 nM
CNc1ncc2c(/C=C/C(=O)N3CCC(OC)CC3)nn(Cc3cccc(C)c3)c2n1 | Active | Active | EC50 [3]: 1800 nM; EC50 [4]: 2500 nM
Nc1ncnc2c1c(/C=C/C(=O)N1CCOCC1)nn2CC1CCCC1 | inactive | inactive | 
CNc1ncc2c(/C=C/C(=O)O)nn(CC3CCCC3)c2n1 | inactive | inactive | 
CNc1ncc2c(/C=C/C(=O)N3CCC(N(C)C)CC3)nn(CC3CCCC3)c2n1 |  | Active | 
CNc1ncc2c(/C=C/C(=O)N3CCC(CCO)CC3)nn(CC3CCCC3)c2n1 |  | Active | 
COC1CCN(C(=O)/C=C/c2nn(CC3CCCC3)c3ncnc(N)c23)CC1 | inactive | inactive | 
CNc1ncc2c(/C=C/C(=O)N3CCC(OC)CC3)nn(CC3OCCO3)c2n1 | inactive | inactive | 
CNc1ncc2c(/C=C/C(=O)N3CCC(OC)CC3)nn(Cc3ccc(OC)cc3)c2n1 | Active; Partial Restoration Of Antiproliferative Activity Observed | Active; Partial Restoration Of Antiproliferative Activity Observed | 
CNc1ncc2c(/C=C/C(=O)N3CCC(OC)CC3)nn(Cc3ccccc3C(F)(F)F)c2n1 | inactive | inactive | 
Nc1ncnc2c1c(/C=C/C(=O)N1CCC(O)CC1)nn2CC1CCCC1 | inactive | inactive | 
Nc1ncnc2c1c(/C=C/C(=O)N1CCC(CCO)CC1)nn2CC1CCCC1 | inactive | inactive | 
CNc1ncc2c(/C=C/C(=O)N3CCC(OC)CC3)nn(Cc3ccccc3C)c2n1 | inactive | inactive | 
CNc1ncc2c(/C=C/C(=O)N3CCC(COC)CC3)nn(Cc3cccc(C)c3)c2n1 | inactive | inactive | 
CCOC(Cn1nc(/C=C/C(=O)N2CCC(OC)CC2)c2cnc(NC)nc21)OCC | inactive | inactive | 
CNc1ncc2c(/C=C/C(=O)N3CCC(OC)CC3)nn(CC(OC)OC)c2n1 | inactive | inactive | 
CNc1ncc2c(/C=C/C(=O)N3CCCC(N(C)C)C3)nn(CC3CCCC3)c2n1 (stereo not given) |  | Active | 
CNc1ncc2c(/C=C/C(=O)N3CCC(C)CC3)nn(CC3CCCC3)c2n1 |  | Active | 
CNc1ncc2c(/C=C/C(=O)N3CCC(OC)CC3)nn(CC3CCCC3)c2n1 |  | Active | EC50 [3]: < 9000 nM; EC50 [4]: < 9000 nM
CNc1ncc2c(/C=C/C(=O)N3CCC(OC)CC3)nn(Cc3ccc(C(F)(F)F)cc3)c2n1 | Active; Partial Restoration Of Antiproliferative Activity Observed | Active; Partial Restoration Of Antiproliferative Activity Observed | 
CNc1ncc2c(/C=C/C(=O)N3CCC(OC)CC3)nn(Cc3ccccc3)c2n1 | Active | Active | 
CNc1ncc2c(/C=C/C(=O)N3CCCCC3)nn(CC3CCCC3)c2n1 |  | Active | 

SMILES | Activity [1] | Activity [2] | further results
CNc1ncc2c(/C=C/C(=O)N3CCC(OC)CC3)nn(C(C)C)c2n1 | inactive | inactive | 
CC1CCN(C(=O)/C=C/c2nn(CC3CCCC3)c3ncnc(N)c23)CC1 | inactive | inactive | 
CNc1ncc2c(/C=C/C(=O)N3CCC(OC)CC3)nn(CC3CCCCC3)c2n1 | Active | Active | 
CNc1ncc2c(/C=C/C(=O)N3CCC(OC)CC3)nn(CCC(C)C)c2n1 | inactive | inactive | 
CNc1ncc2c(/C=C/C(=O)N3CCC(OC)CC3)nn(CC(C)(C)C)c2n1 | inactive | inactive | 
CNc1ncc2c(/C=C/C(=O)N3CCC(O)CC3)nn(CC3CCCC3)c2n1 |  | Active | 
CN(C)C1CCN(C(=O)/C=C/c2nn(CC3CCCC3)c3ncnc(N)c23)CC1 | inactive | inactive | 
CCOC1CCN(C(=O)/C=C/c2nn(Cc3cccc(C)c3)c3nc(NC)ncc23)CC1 | inactive | inactive | 
CNc1ncc2c(/C=C/C(=O)N3CCC(OC)CC3)nn(Cc3cccc(C(F)(F)F)c3)c2n1 |  |  | IC50 [5]: 1450 nM
CNc1ncc2c(/C=C/C(=O)N3CCC(OC)CC3)nn(Cc3ccccc3OC)c2n1 | inactive | inactive | 
CNc1ncc2c(/C=C/C(=O)N3CCCC3)nn(CC3CCCC3)c2n1 |  | Active | 
CNc1ncc2c(/C=C/C(=O)N3CCOCC3)nn(CC3CCCC3)c2n1 |  | Active | 
CNc1ncc2c(/C=C/C(=O)N3CCC4(CC3)OCCO4)nn(Cc3cccc(C)c3)c2n1 | Active | Active | EC50 [3]: 830 nM; EC50 [4]: 1240 nM
Nc1ncnc2c1c(/C=C/C(=O)N1CCCCC1)nn2CC1CCCC1 | inactive | inactive | 
CNc1ncc2c(/C=C/C(=O)N3CCC(c4ccccc4)CC3)nn(CC3CCCC3)c2n1 |  | Active | 
CNc1ncc2c(/C=C/C(=O)N3CCC(OC)CC3)nn(Cc3ccc(C)cc3)c2n1 | Active; Partial Restoration Of Antiproliferative Activity Observed | Active; Partial Restoration Of Antiproliferative Activity Observed | 
CNc1ncc2c(/C=C/C(=O)N3CCC(OC)CC3)nn(Cc3cccc(OC)c3)c2n1 | Active | Active | 
COC(=O)/C=C/c1nn(CC2CCCC2)c2ncnc(N)c12 | inactive | inactive | 
Nc1ncnc2c1c(/C=C/C(=O)O)nn2CC1CCCC1 | inactive | inactive | 
CNc1ncc2c(/C=C/C(=O)N3CCC4(CC3)OCCO4)nn(Cc3cccc(C(F)(F)F)c3)c2n1 |  |  | EC50 [3]: 560 nM; EC50 [4]: 700 nM; Activity [6]: Active; EC50 [7]: 920 nM; Activity [8]: Active; Activity [9]: Active; Activity [10]: Active; Activity [11]: Active; EC50 [12]: 2900 nM; Activity [13]: Active
CNc1ncc2c(/C=C/C(=O)N3CCC(OC)CC3)nn(CC3CCCO3)c2n1 (stereo not given) | inactive | inactive | 
CN(C)C1CCCN(C(=O)/C=C/c2nn(CC3CCCC3)c3ncnc(N)c23)C1 (stereo not given) | inactive | inactive | 
Nc1ncnc2c1c(/C=C/C(=O)N1CCC(c3ccccc3)CC1)nn2CC1CCCC1 |  |  | EC50 [3]: ~30000 nM; EC50 [4]: ~30000 nM
